Entries after “also recorded” stand apart in the source; their conditions may differ.

The subject of one data set is Wild buckwheat. Put plainly: Ex15 PRE 2,4-DC + S-metolachlor, % control 28 DAT, Colby. In kind it is in vivo, Polygonum convolvulus. The text has this:
The weeds tested in this study were redroot pigweed (Amaranthus retroflexus, AMARE), Jimsonweed (Datura stramonium, DATST), black nightshade (Solanum nigrum, SOLNI), large crabgrass (Digitaria sanguinalis, DIGSA), Pennsylvania smartweed (Polygonum pensylvanicum, POLPY), horseweed (Conyza canadensis, ERICA), wild buckwheat (Polygonum convolvulus, POLCO). The crop tested was Corn (var. Viking).
To determine PRE efficacy and corn injury, five rates of each 2,4 DC (36.7% CS) and S-metolachlor (Dual II Magnum®, 82.4%) were applied either alone or as tank-mix. 2,4 DC was applied at 0, 125, 170, 210, or 250 g ai/ha and S-metolachlor was applied at 0, 267, 534, 801, or 1070 g ai/ha. Additional treatments included application of premix of pyroxasulfone plus fluthiacet-methyl (Anthem™ 23.3%) at 169.9 g ai/ha and tank-mix of mesotrione (Callisto®, 40%) at 123 g plus S-metolachlor at 1252 g. Treatments were applied just after the planting of large crabgrass, Jimsonweed, black nightshade, redroot pigweed, Pennsylvania smartweed, horseweed, wild buckwheat, and corn.
Flats were watered and fertilized routinely after treatment application. Each treatment was replicated three times. […] Corn injury was rated for bleaching and stunting.

For the next data set, the system named is Common cocklebur. Put plainly: Ex37 PRE 2,4-DC + atrazine, % control 28 DAT, Colby. Type of data set: in vivo, Xanthium strumarium. The source says: (§1) S-metolachlor (DUAL II MAGNUM®, 82.4%) at 525 g ai/h plus atrazine at 560 g ai/h was included as a standard for comparison. […] Thereafter flats were watered and fertilized routinely.
A further data set relates to weeds; Wheat and canola. Put plainly: Ex35 PRE greenhouse. Type of data set: in vivo. Conditions: rate in the words. The text has this: Crops screened were wheat and canola.
For the next data set, the system named is weeds; barley and wheat. Nature of the data set: Ex40 POST greenhouse. Type of data set: in vivo. Conditions: rate in the words. On the procedure: Treatments were applied to barley and wheat crops.
Non-ionic surfactant (NIS) was added to all treatments at 0.5% v/v. All plant species were direct seeded into 3″ plastic pots using metro-mix as growth media. At treatment common lambsquarters was 1.75″, common chickweed was 2″, wild mustard was 2.25″, wild oat was 5.5″, wild buckwheat was 2-5″, Italian ryegrass was 2-3″, wheat was 5.5″ and barley was 4.5″ in height. Plants were watered well before application and not watered 24 h after application. Plants were watered and fertilized routinely after treatment application. Each treatment was replicated four times. Treated flats were placed in randomized block design in the greenhouse.

For data set [1], the system named is sweet corn, yellow corn, and sorghum. Conditions: PRE; crop and rate in the words.
Excerpt: Treatments were also applied ot sweet corn, yellow corn, and sorghum.
Treatments were applied before the emergence of Jimsonweed, velvetleaf, hairy beggarticks, common cocklebur, barnyardgrass, sweet corn, yellow corn, and sorghum. Plant species were planted in fiber flats (6″×10″) containing Pennington soil and flats were watered well before application and watered lightly after application. Flats were watered and fertilized routinely after treatment application.
The subject of data set [2] is weeds. Put plainly: Ex16 PRE greenhouse. In kind it is in vivo. Conditions: weed and rate in the words. The text has this: To determine PRE efficacy, five levels of 2,4 DC (36.7% CS) 0, 125, 170, 210, or 250 g ai/ha and five levels of pyroxasulfone (KIH485-85WG) 0, 50, 65, 80, or 95 g ai/ha were applied either alone or as tank-mix. Additional treatments consisted of premix of pyroxasulfone plus fluthiacet-methyl (Anthem™ 23.3%) at 169.9 g ai/ha, S-metolachlor (Dual II Magnum, 82.4%) at 1388 g, and tank-mix of mesotrione (Callisto, 40%) at 123 g plus S-metolachlor at 1252 g. […] Treatments were applied before the emergence of black nightshade, giant foxtail, green foxtail, yellow foxtail, large crabgrass, kochia, redroot pigweed, common ragweed, and barnyardgrass.
Flats were watered and fertilized routinely after treatment application. Each treatment was replicated three times.

The test system of another data set is Common lambsquarters. Put plainly: Ex34 PRE 2,4-DC + napropamide, % control, Colby. In kind it is in vivo, Chenopodium album. The conditions noted are these: 28 DAT. The text has this:
Thereafter flats were watered and fertilized routinely.

The test system of the next data set is weeds; Wheat and Barley. Nature of the data set: Ex41 POST greenhouse. Type of data set: in vivo. The conditions noted are these: rate in the words. As to the method: Treatments were applied to wheat and barley crops.
Nonionic surfactant was added at 0.5% v/v in all treatments. Treatments were applied to wheat (5.5″), barley (5″), wild oat (5.5″), common chickweed (2″), wild buckwheat (3″), and common lambsquarters (2″). All plant species were direct seeded into 3″ plastic pots using metro-mix as growth media and pots were watered well before application and watered 24 h after application. Plants were watered and fertilized routinely after treatment application. Each treatment was replicated four times.

The subject of data set [3] is weeds. Nature of the data set: Ex10 PRE greenhouse. Type of data set: in vivo. Conditions: 28 DAT, weed and rate in the words.
The test system of data set [4] is weeds; corn, sweet corn, and sorghum. Nature of the data set: Ex37 PRE greenhouse. In kind it is in vivo. The conditions noted are these: weed and rate in the words.
Excerpt: as §1

The test system of data set [5] is weeds; Sugarcane (var. CTC 20). Nature of the data set: Ex17 PRE greenhouse. Type of data set: in vivo. The conditions noted are these: weed and rate in the words. On the procedure:
In this example a study was conducted to determine weed efficacy and sugarcane injury when 2,4 DC or isoxaflutole are applied either alone or tank-mix as preemergence against the weeds: Ivyleaf morningglory (Ipomoea hederacea, IPOHE), hairy beggartickss (Bidens pilosa, BIDPI), yellow nutsedge (Cyperus esculentus, CYPES), large crabgrass (Digitaria sanguinalis, DIGSA), and redroot pigweed (Amaranthus retroflexus, AMARE). The crop tested in this study was Sugarcane (var. CTC 20).
To determine weed efficacy and sugarcane selectivity, 2,4 DC (SC 36%) and isoxaflutole (Balance Flexx®, 20%) were applied PRE either alone or as tank-mix partners at rates mentioned below. 2,4 DC was applied at 500, 750, and 1000 g ai/ha while isoxaflutole was applied at 80, 100, and 120 g ai/ha. […] Treatments were applied PRE to sugarcane (var. CTC 20), ivyleaf morningglory, hairy beggarticks, yellow nutsedge, large crabgrass, and redroot pigweed. Weed species were planted in fiber flats (6″×10″) containing Pennington soil. Soil was watered before application and watered lightly after application. Flats were watered and fertilized routinely after treatment application.

Consider `CC1(C)CON(Cc2ccc(Cl)cc2Cl)C1=O` [2,4-DC, 2-(2,4-dichlorophenyl)methyl-4,4-dimethyl-3-isoxazolidinone], for which the X in the data set on Wild buckwheat (2,4-DC alone 125 g ai/ha) turned out to be 15%; in the data set on Wild buckwheat (2,4-DC alone 170 g ai/ha), 43%; in the data set on Wild buckwheat (2,4-DC alone 210 g ai/ha), 30%; with Wild buckwheat (2,4-DC alone 250 g ai/ha), 32%; in the data set with Common cocklebur (2,4-DC alone 50 g ai/ha), 0%; in the data set with Common cocklebur (2,4-DC alone 100 g ai/ha) it was 7%. Further, the X in the data set on Common cocklebur (2,4-DC alone 200 g ai/ha) is given as 60%; in the data set on Common lambsquarters (2,4-DC alone 31 g ai/ha), 28%; with Common lambsquarters (2,4-DC alone 63 g ai/ha), 43%; in the data set on Common lambsquarters (2,4-DC alone 125 g ai/ha), 85%; in the data set on Common lambsquarters (2,4-DC alone 250 g ai/ha), 91%; with Common lambsquarters (2,4-DC alone 375 g ai/ha) it was 93%. The “weed control / crop safety in words” value is “alone at 50 g ai/ha controlled (≥85% injury) common chickweed, at 100 g controlled blackgrass and wild buckwheat; also recorded: alone was safe on wheat and canola (≤10% injury) when applied at 50 and 100 g” with weeds; Wheat and canola; “applied alone was safe at all rates on both wheat and barley” in the data set on weeds; barley and wheat; “Wheat was safe with 2,4-DC alone up to 170 g ai/ha, barley was not safe with any rate of 2,4-DC alone” in the data set on weeds; Wheat and Barley. For the same compound, the “crop safety in words” value in data set [1] was “alone was safe on sweet corn and sorghum at the lowest rate while safe on yellow corn at 50 or 100 g ai/ha”. For the same compound, the “weed control in words” value is “alone controlled kochia at 210 g ai/ha, barnyardgrass and large crabgrass at 125 g, giant foxtail and green foxtail at 170 g” in the data set with weeds [2]; “alone at 250 g ai/ha controlled common lambsquarters” in the data set with weeds [3]; “applied alone at ≥50 g ai/ha controlled barnyardgrass 28 DAT; also recorded: applied alone at ≥200 g controlled velvetleaf and redroot pigweed” in data set [4]; “Large crabgrass and redroot pigweed were controlled with 2,4 DC alone at 500 g or higher rates” in data set [5].

Values taken from patent publication US12616203B2, “Use of 3-isoxazolidinones compounds as selective herbicides” (FMC Corporation, priority 2014, dated 2026).
